Assay [1] has as its system SKOV 3 (Ovarian adenocarcinoma). In words: Inhibition of proliferation, SKOV 3 carcinoma line. It is filed as cell-based. To be noted: Cell line: SKOV 3. The procedure:
(§1) Dimers of the present knottins with AO groups incorporated at different positions were prepared and conjugated with different linkages. There were tested for activity against carcinoma lines. As identified there, Dimer 1 is EETI 2.5F where the AO group was incorporated in place of Lys15, conjugated through the 17.3 Angstrom linker shown in FIG. 1B; Dimer 2 is EETI 2.5F, where the AO group was incorporated in place of Lys15, conjugated though the 68.5 Angstrom linker shown in FIG. 9. Dimer 3 is EETI 2.5F, where the AO group was incorporated at the C-terminus following residue 33, conjugated through a 17.3 Angstrom linker shown in FIG. 1B; Dimer 4 is EETI 2.5F, where the AO group was incorporated at the C-terminus following residue 33, conjugated through the 68.5 Angstrom linker shown in FIG. 9. […] Also, it was observed that the length of the linkage had only a minor effect on binding. Binding, of course, it correlated with the activity in proliferation and apoptosis.

Assay [2] has as its system MDA231 (Human breast adenocarcinoma). Nature of the assay: Inhibition of proliferation, MDA231 carcinoma line. The assay is classed as cell-based. To be noted: for Proliferation: Cell line: MDA231; for inhibition of tumor cell proliferation, comparison between dimers, monomer and Cilengitide: Table 3 results. As for the experimental part: as §1
The subject of assay [3] is U87MG cells. It is filed as cell-based, human. To be noted: for EC50: U87MG cells on fibronectin coated plates, 1 h at 37° C., read-out: Adhesion EC50. As for the experimental part: FIG. 3A is a graph measuring comparative inhibition of adhesion of U87MG cells treated with dimeric and monomeric 2.5F to fibronectin, a component of ECM. Fibronectin coated plates were incubated with U87MG cells with the indicated concentrations of peptides. Adherent cells remaining after several wash steps were quantified with crystal violet staining by absorbance at 600 nm. […] Values were normalized to negative control containing no competing peptides.
FIG. 7 is a graph measuring comparative inhibition of adhesion of U87MG cells treated with dimeric and monomeric 2.5F or Cilgenitide to fibronectin, a component of ECM. Fibronectin coated plates were incubated with U87MG cells with the indicated concentrations of peptides. Adherent cells remaining after several wash steps were quantified with crystal violet staining by absorbance at 600 nm. Values were normalized to negative control containing no competing peptides.
Varying concentrations of peptides were added to 4×10^4 cells in 100 μl of IBB, incubated for 1 h at 37° C., 5% CO2, and gently washed with Dulbecco's PBS (DPBS, Invitrogen). Remaining adherent cells were incubated with 100 μl of 0.2% crystal violet and 10% ethanol for 10 min at room temperature, washed in DPBS and solubilized with 100 μl/well of a 50:50 mixture of 100 mM sodium phosphate, pH 4.5 and ethanol for 10 min. The absorbance at 600 nm was measured using Synergy HT microplate reader (BioTek).

Assay [4] relates to MDA231 (Human breast adenocarcinoma). In words: Apoptosis (Caspase-3), MDA231 carcinoma line. It is filed as cell-based. The following applies: Cell line: MDA231. As for the experimental part:
as §1

For assay [5], the system named is U87MG cells expressing αvβ3, αvβ5, and α5β1 integrins. In words: Competition binding assay to U87MG cells (flow cytometry). Further details: species or system human. The following applies: for IC50: 4° C. for 10 h, average of three experiments; for increase of apparent binding affinity of dimer compared to the monomer: from IC50 values. As for the experimental part:
FIG. 2B is a graph showing a competition assay of EETI-based integrin binding proteins 2.5F dimer and 2.5F monomer to U87MG cells, as measured by flow cytometry. Alexa488-labeled EETI 2.5F was used as a competitor. Monomeric EETI 2.5F with an introduced aminooxy residue is designated as 2.5F_AO.
FIG. 2C is a graph showing a competition assay of AgRP-based integrin binding proteins: dimeric 7C and monomeric 7C to U87MG cells, as measured by flow cytometry. Alexa488-labeled AgRP 7C was used as a competitor. Monomeric AgRP 7C with aminooxy residue is designated as Monomeric 7C_AO.
Alexa488-labeled EETI 2.5F was used as a competitor.
Competition binding assays were performed to measure the relative binding affinities of engineered knottins to U87MG cells expressing αvβ3, αvβ5, and α5β1 integrins (FIG. 2A, 2B, 2C). 2×10^5 U87MG cells were incubated at 4° C. for 10 h in integrin binding buffer (20 mM Tris pH 7.5, 1 mM MgCl2, 1 mM MnCl2, 2 mM CaCl2, 100 mM NaCl, and 0.1% BSA) and varying concentrations of the peptides with 0.25 nM of Alexa488-labeled EETI 2.5F as a competitor for dimeric and monomeric EETI 2.5F, and 5 nM of Alexa488-labeled AgRP 7C as a competitor for dimeric and monomeric AgRP 7C. Half-maximal inhibitory concentration (IC50) values were determined by nonlinear regression analysis using KaleidaGraph (Synergy Software), and are presented as the average of three separate experiments.
Background: Flow cytometry measures light scatter and fluorescence of single cells or particles in a stream.

In assay [6] the test system is U87MG cells. Nature of the assay: Cytotoxicity / inhibition of proliferation of U87MG cells (AlamarBlue). It is filed as cell-based, human. As for the experimental part: FIG. 4A is a bar graph showing time dependent cytotoxicity of U87MG cells after treatment with the indicated knottin mini-proteins. Cytotoxicity was monitored by incubating U87MG cells on culture plates with 500 nM of each knottin in 4% FBS media at 37° C. and 5% CO2 and measuring cell viability at 24, 48, and 72 h after the treatment using the AlamarBlue indicator dye.
FIG. 4B is a bar graph showing dose dependent cytotoxicity of U87MG cells assessed by treating with different concentrations of knottins for 72 h and measuring cell viability using the AlamarBlue indicator dye.
FIG. 8 is a bar graph showing dose dependent cytotoxicity of U87MG cells assessed by treating with different concentrations of dimeric or monomeric 2.5F or Cilgenitide for 72 h and measuring cell viability using the AlamarBlue indicator dye.
(In general: Alamar Blue is a resazurin reagent that responds to reducing activity.)

Assay [7] relates to U87MG cells. Nature of the assay: U87MG cell morphology after knottin treatment (microscope images). The assay is classed as cell-based, human. To be noted: 500 nM, 24 h, DMEM media with 4% FBS. The procedure: FIG. 3B is a panel of microscope images of the U87MG cells on culture plates after 24 h treatment with 500 nM of the indicated knottins.
Where [8] appears, read: 0.25 nM Alexa488-labeled EETI 2.5F as competitor.

Starred links: 1 amine or outer side, 2 acyl side, 3 side chain; linkers in the order of their positions; H or OH if unused. Positions of bridges follow the written chain, without caps; N, C: chain ends. Non-standard residues stand in square brackets, D forms with d. Residues, ends and D or L forms follow the SMILES beside them. Primed or numbered codes have the meaning given here. Chains are numbered I, II in the order given. No end group written: not given here. AO″ = AO: aminooxy residue, 2-amino-3-(2-(aminooxy)acetamido)propanoic acid (side chain carries R'-O-NH2), O=C(CON[*:3])NC[C@H](N[*:1])C(=O)[*:2]; X1 = O=C(NCCCOCCCCOCCCNC(=O)c1ccc(C=NOCC(=O)[*:2])cc1)c1ccc(C=NOCC(=O)[*:1])cc1; Dap = NC[C@H](N)C(=O)O

In the case of “2.5F Dimer2: EETI 2.5F, AO in place of Lys15, conjugated though the 68.5 Angstrom linker shown in FIG. 9 (GCPRPRGDNPPLTC[AO″]QDSDCLAGCVCGPNGFCG; ends and bridges not checked; also: dimer (Dimer2) conjugated through 68.5 Angstrom linker via AO15)”, in assay [1], the Proliferation entry is recorded as “Strong inhibition”. Further, in assay [2], the Proliferation entry is recorded as “Strong inhibition”; the “inhibition of tumor cell proliferation, comparison between dimers, monomer and Cilengitide” value was “more strongly inhibited tumor cell proliferation compared to Dimers 3 and 4”.

Consider `CC(C)[C@H]1C(=O)N[C@@H](CCCN=C(N)N)C(=O)NCC(=O)N[C@@H](CC(=O)O)C(=O)N[C@H](Cc2ccccc2)C(=O)N1C` [Cilengitide, reference compound], for which the Proliferation entry in assay [2] is “Weak inhibition”. Besides, in the assay on U87MG cells [3] (fibronectin-coated plates), the “inhibition of U87MG cell adhesion to fibronectin (in words)” value (from here on “inhibition of U87MG cell adhesion”) is “does not inhibit”. Besides, in assay [4], the “Apoptosis (Caspase-3)” value is given as “Moderate induction”.

For `CC(C)C[C@@H]1NC(=O)[C@@H]2CSSC[C@@H](C(=O)NCC(=O)O)NC(=O)[C@H](Cc3ccccc3)NC(=O)CNC(=O)[C@H](CC(N)=O)NC(=O)[C@@H]3CCCN3C(=O)CNC(=O)[C@@H]3CSSC[C@H](NC(=O)[C@H]([C@@H](C)O)NC(=O)[C@H](CC(C)C)NC(=O)[C@@H]4CCCN4C(=O)[C@@H]4CCCN4C(=O)[C@H](CC(N)=O)NC(=O)[C@H](CC(=O)O)NC(=O)CNC(=O)[C@H](CCCNC(=N)N)NC(=O)[C@@H]4CCCN4C(=O)[C@H](CCCNC(=N)N)NC(=O)[C@@H]4CCCN4C(=O)[C@@H](NC(=O)CN)CSSC[C@H](NC(=O)CNC(=O)[C@H](C)NC1=O)C(=O)N[C@@H](C(C)C)C(=O)N3)C(=O)N[C@@H](CCCCN)C(=O)N[C@@H](CCC(N)=O)C(=O)N[C@@H](CC(=O)O)C(=O)N[C@@H](CO)C(=O)N[C@@H](CC(=O)O)C(=O)N2` [EETI 2.5F] (H-GCPRPRGDNPPLTCKQDSDCLAGCVCGPNGFCG-OH; disulfide 2-24, 14-26, 20-32), the IC50 (commonly the midpoint of a concentration-inhibition curve) in assay [5] (setting [8]) is 1.64 ± 0.03 nM. Further, the “inhibition of U87MG cell proliferation” value in the assay with U87MG cells [6] (10 nM, 72 hours) turned out to be 15%; in the assay on U87MG cells [6] (100 nM, 72 hours), 30%; in the assay on U87MG cells [6] (500 nM, 24 h), 37%; in the assay on U87MG cells [6] (500 nM, 48 h), 44%; with U87MG cells [6] (500 nM, 72 h), 50%; with U87MG cells [6] (1000 nM, 72 hours) it was 60%. For the same molecule, the Proliferation entry in assay [2] is “Weak inhibition”. Also, in the assay on U87MG cells [7], the U87MG cell morphology result was “rounded morphology”. Besides, the EC50 – broadly, the midpoint of the concentration-response curve – in the assay on U87MG cells [3] is 180 ± 14 nM. Moreover, the “inhibition of U87MG cell adhesion” value with U87MG cells [3] (fibronectin-coated plates) was “able to inhibit”. Further, the “Apoptosis (Caspase-3)” value in assay [4] is listed as “Moderate induction”.

As for “I: GCPRPRGDNPPLTC[Dap]QDSDCLAGCVCGPNGFCG / II: GCPRPRGDNPPLTC[Dap]QDSDCLAGCVCGPNGFCG (disulfide I:2-I:24, I:14-I:26, I:20-I:32, II:2-II:24, II:14-II:26, II:20-II:32; linker I:15-II:15 via X1) [EETI 2.5F Dimer]”, in assay [5] (setting [8]), the IC50 is 0.036 ± 0.002 nM. Moreover, in assay [5], the “increase of apparent binding affinity of dimer compared to the monomer” value is “approximately 46 fold”. The Proliferation result in assay [1] and in assay [2] was “Strong inhibition” throughout. The “inhibition of U87MG cell proliferation” value in the assay on U87MG cells [6] (10 nM, 72 hours) is on record as 28%; with U87MG cells [6] (100 nM, 72 hours), 52%; in the assay with U87MG cells [6] (500 nM, 24 h), 53%; in the assay on U87MG cells [6] (500 nM, 48 h), 68%; with U87MG cells [6] (500 nM, 72 h), 69%; in the assay on U87MG cells [6] (1000 nM, 72 hours) it was 70%. The “more potent at inhibiting cell proliferation compared to Cilengitide” value in the assay on U87MG cells [6] (U87MG cells, 72 h) was found to be 100 fold. Moreover, the “inhibition of tumor cell proliferation, comparison between dimers, monomer and Cilengitide” value in assay [2] is “more strongly inhibited tumor cell proliferation compared to Dimers 3 and 4”. Besides, the U87MG cell morphology entry in the assay on U87MG cells [7] is “rounded morphology”. In addition, the concentration for a half-maximal effect (EC50) with U87MG cells [3] was 8 ± 2 nM. Also, in the assay on U87MG cells [3] (fibronectin-coated plates), the “inhibition of U87MG cell adhesion” value was “able to inhibit”. Also, in the assay with U87MG cells [3] (fibronectin-coated plates), the “more effective in preventing U87MG cell adhesion compared to the monomer” value was 100 fold. The “Apoptosis (Caspase-3)” value in assay [4] is “Strong induction”.

As for “I: GCVRLHESCLGQQVPCCDPAATCYCYGRGDNDLRCYC[Dap] / II: GCVRLHESCLGQQVPCCDPAATCYCYGRGDNDLRCYC[Dap] (disulfide I:2-I:17, I:9-I:23, I:16-I:37, I:25-I:35, II:2-II:17, II:9-II:23, II:16-II:37, II:25-II:35; linker I:38-II:38 via X1) [AgRP 7C Dimer]”, the IC50 in assay [5] (5 nM Alexa488-labeled AgRP 7C as competitor) amounted to 3.2 ± 0.6 nM. Also, the “increase of apparent binding affinity of dimer compared to the monomer” value in assay [5] is given as roughly 4 fold.

Turning to “scrambled EETI FNRDG monomer [FNRDG_AO, reference compound]”, the “binding (in words)” value in assay [5] (scrambled controls) is listed as “negligible binding”. In the assay on U87MG cells [6] (scrambled controls), the “inhibition of U87MG cell proliferation (in words)” value is “did not induce significant inhibition”. Moreover, in the assay with U87MG cells [3] (fibronectin-coated plates), the “inhibition of U87MG cell adhesion” value is “not able to inhibit cell adhesion”.

The values above are taken from patent US9587001B2, “Conjugated knottin mini-proteins containing non-natural amino acids” (priority 2012, dated 2017).
